Earlier results as cited in publication PMC5266543 (ACS infectious diseases, 2016).

Tested on: M. tuberculosis H37Rv
Settings: cited from earlier work

In the case of `CC(=O)N(O)CCCP(=O)(O)O` [Compound 2, FR900098], the “MIC against Mtb” value is given as “essentially inactive”.
